What was measured:
[1] = target: T1, SLC6A19 (Homo sapiens, UniProt Q695T7); experiment: Amino acid excretion over 24 h after a single dose of suspension in healthy volunteers; format: in vivo
T1 construct: SCL6A19 is located in the proximal tubule of the kidney and is responsible for reabsorption of amino acids back into the blood; from tissue; host or cells: Kidney proximal tubule of healthy volunteers (in vivo, endogenous)
T1 sequence (Q695T7 1-634): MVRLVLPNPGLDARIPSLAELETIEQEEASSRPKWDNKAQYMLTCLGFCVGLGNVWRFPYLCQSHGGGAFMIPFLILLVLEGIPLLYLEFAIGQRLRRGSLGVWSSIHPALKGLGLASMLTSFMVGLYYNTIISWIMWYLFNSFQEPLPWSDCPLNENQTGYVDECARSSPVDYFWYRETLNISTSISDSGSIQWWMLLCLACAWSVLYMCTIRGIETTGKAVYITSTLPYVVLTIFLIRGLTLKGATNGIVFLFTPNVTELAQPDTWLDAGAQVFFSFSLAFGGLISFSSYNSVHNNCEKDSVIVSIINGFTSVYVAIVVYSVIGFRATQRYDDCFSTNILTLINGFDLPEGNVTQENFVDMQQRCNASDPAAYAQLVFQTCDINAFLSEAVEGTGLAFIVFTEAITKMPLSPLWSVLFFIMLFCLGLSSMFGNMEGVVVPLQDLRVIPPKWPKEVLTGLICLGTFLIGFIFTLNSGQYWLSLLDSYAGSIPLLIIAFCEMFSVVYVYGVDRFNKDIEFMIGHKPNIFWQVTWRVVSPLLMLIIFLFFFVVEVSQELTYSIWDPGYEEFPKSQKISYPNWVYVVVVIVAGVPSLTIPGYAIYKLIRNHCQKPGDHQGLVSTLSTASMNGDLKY
T1 sequence (Q9HBJ8 15-222 partner): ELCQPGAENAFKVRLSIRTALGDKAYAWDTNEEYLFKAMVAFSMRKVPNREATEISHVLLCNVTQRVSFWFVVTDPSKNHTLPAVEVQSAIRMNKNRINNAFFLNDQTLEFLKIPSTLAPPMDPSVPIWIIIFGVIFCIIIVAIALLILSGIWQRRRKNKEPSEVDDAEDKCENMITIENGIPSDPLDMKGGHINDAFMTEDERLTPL
Description: FIG. 1 is a graph of the pharmacodynamic effect of Compound 1 in healthy volunteers showing changes in total phenylalanine or overall SLC6A19 amino acid substrates (Hartnup amino acids) excretion over 24 hours following administration of a single dose of the compound (10-170 mg) in the form of a suspension.
A suspension formulation of varying doses of Compound 1 (10-170 mg) was administered to healthy volunteers. Changes in amino acid excretion over 24 h following a single dose were measured (FIG. 1). Up to a 14-fold increase in total Phe excretion (from 10 mg to 142 mg) and a 16-fold increase in Hartnup AA excretion (from 0.29 g to 4.8 g) were observed over 24 hr after dosing (Tables 13A and 13B).

[2] = Plasma levels of Compound 1 over 24 hours after 14 days of suspension administration in healthy volunteers; format: in vivo; conditions: human, oral; for concentration at 0 h: 0 h post-dose; for concentration at 0.5 h: 0.5 h post-dose; for concentration at 1 h: 1 h post-dose; for concentration at 1.5 h: 1.5 h post-dose; for concentration at 2 h: 2 h post-dose; for concentration at 2.5 h: 2.5 h post-dose; for concentration at 3 h: 3 h post-dose; for concentration at 4 h: 4 h post-dose; for concentration at 6 h: 6 h post-dose; for concentration at 8 h: 8 h post-dose; for concentration at 8.5 h: 8.5 h post-dose; for concentration at 9 h: 9 h post-dose; for concentration at 9.5 h: 9.5 h post-dose; for concentration at 10 h: 10 h post-dose; for concentration at 10.5 h: 10.5 h post-dose; for concentration at 11.5 h: 11.5 h post-dose; for concentration at 12 h: 12 h post-dose; for concentration at 14 h: 14 h post-dose; for concentration at 16 h: 16 h post-dose; for concentration at 24 h: 24 h post-dose
Description: FIG. 2 is an assessment of the pharmacokinetics of Compound 1 in healthy volunteers over 24 hours after 14 days of administration of a suspension of the compound at three different doses (25 or 75 mg twice daily [BID] or 150 mg once daily [QD]).
A suspension formulation of varying doses of Compound 1 (25 or 75 mg twice daily [BID] or 150 mg once daily [QD]) was administered to healthy volunteers. Plasma levels of Compound 1 over 24 hours after 14 days of administration were measured (FIG. 2). Post-dose plasma levels are recited in Table 14.

[3] = single dose suspension, highest value of 10-170 mg

Compound: NC(=O)N1CCC[C@@H](N(C(=O)NCc2ccc(OC(F)(F)F)cc2F)C2CC2)C1 [Cpd 1, (R)-3-(1-cyclopropyl-3-(2-fluoro-4-(trifluoromethoxy)benzyl)ureido) piperidine-1-carboxamide]
- Excretion amounts over 24 h, Hartnup Amino Acids, Mean ([1]; single dose 10 mg suspension): 712.45 mg
- Excretion amounts over 24 h, Phenylalanine, Mean ([1]; single dose 10 mg suspension): 12.50 mg
- Excretion amounts over 24 h, Hartnup Amino Acids, Mean ([1]; single dose 25 mg suspension): 1213.02 mg
- Excretion amounts over 24 h, Phenylalanine, Mean ([1]; single dose 25 mg suspension): 21.02 mg
- Excretion amounts over 24 h, Hartnup Amino Acids, Mean ([1]; single dose 50 mg suspension): 2560.22 mg
- Excretion amounts over 24 h, Phenylalanine, Mean ([1]; single dose 50 mg suspension): 51.53 mg
- Excretion amounts over 24 h, Hartnup Amino Acids, Mean ([1]; single dose 100 mg suspension): 3281.75 mg
- Excretion amounts over 24 h, Phenylalanine, Mean ([1]; single dose 100 mg suspension): 77.84 mg
- Excretion amounts over 24 h, Hartnup Amino Acids, Mean ([1]; single dose 170 mg suspension): 4823.71 mg
- Excretion amounts over 24 h, Phenylalanine, Mean ([1]; single dose 170 mg suspension): 141.61 mg
- increase in total Phe excretion over 24 hr after dosing ([1]; single dose 10-170 mg suspension, versus 10 mg baseline): ≤ 14 fold
- increase in Hartnup AA excretion over 24 hr after dosing ([1]; single dose 10-170 mg suspension, versus 0.29 g baseline): ≤ 16 fold
- Hartnup AA excretion over 24 hr after dosing [1, 3]: 4.8 g
- total Phe excretion over 24 hr after dosing [1, 3]: 142 mg
- concentration at 0 h ([2]; 25 mg BID suspension): 186 ng/mL
- concentration at 0.5 h ([2]; 25 mg BID suspension): 1190 ng/mL
- concentration at 1 h ([2]; 25 mg BID suspension): 1090 ng/mL
- concentration at 1.5 h ([2]; 25 mg BID suspension): 1000 ng/mL
- concentration at 2 h ([2]; 25 mg BID suspension): 922 ng/mL
- concentration at 2.5 h ([2]; 25 mg BID suspension): 899 ng/mL
- concentration at 3 h ([2]; 25 mg BID suspension): 820 ng/mL
- concentration at 4 h ([2]; 25 mg BID suspension): 682 ng/mL
- concentration at 6 h ([2]; 25 mg BID suspension): 442 ng/mL
- concentration at 8 h ([2]; 25 mg BID suspension): 336 ng/mL
- concentration at 8.5 h ([2]; 25 mg BID suspension): 894 ng/mL
- concentration at 9 h ([2]; 25 mg BID suspension): 977 ng/mL
- concentration at 9.5 h ([2]; 25 mg BID suspension): 1010 ng/mL
- concentration at 10 h ([2]; 25 mg BID suspension): 1010 ng/mL
- concentration at 10.5 h ([2]; 25 mg BID suspension): 957 ng/mL
- concentration at 11.5 h ([2]; 25 mg BID suspension): 909 ng/mL
- concentration at 12 h ([2]; 25 mg BID suspension): 748 ng/mL
- concentration at 14 h ([2]; 25 mg BID suspension): 562 ng/mL
- concentration at 16 h ([2]; 25 mg BID suspension): 422 ng/mL
- concentration at 24 h ([2]; 25 mg BID suspension): 193 ng/mL
- concentration at 0 h ([2]; 75 mg BID suspension): 916 ng/mL
- concentration at 0.5 h ([2]; 75 mg BID suspension): 3350 ng/mL
- concentration at 1 h ([2]; 75 mg BID suspension): 3860 ng/mL
- concentration at 1.5 h ([2]; 75 mg BID suspension): 3550 ng/mL
- concentration at 2 h ([2]; 75 mg BID suspension): 3330 ng/mL
- concentration at 2.5 h ([2]; 75 mg BID suspension): 3140 ng/mL
- concentration at 3 h ([2]; 75 mg BID suspension): 2910 ng/mL
- concentration at 4 h ([2]; 75 mg BID suspension): 2610 ng/mL
- concentration at 6 h ([2]; 75 mg BID suspension): 2000 ng/mL
- concentration at 8 h ([2]; 75 mg BID suspension): 1600 ng/mL
- concentration at 8.5 h ([2]; 75 mg BID suspension): 3430 ng/mL
- concentration at 9 h ([2]; 75 mg BID suspension): 3600 ng/mL
- concentration at 9.5 h ([2]; 75 mg BID suspension): 3740 ng/mL
- concentration at 10 h ([2]; 75 mg BID suspension): 3600 ng/mL
- concentration at 10.5 h ([2]; 75 mg BID suspension): 3740 ng/mL
- concentration at 11.5 h ([2]; 75 mg BID suspension): 3200 ng/mL
- concentration at 12 h ([2]; 75 mg BID suspension): 2900 ng/mL
- concentration at 14 h ([2]; 75 mg BID suspension): 2280 ng/mL
- concentration at 16 h ([2]; 75 mg BID suspension): 1850 ng/mL
- concentration at 24 h ([2]; 75 mg BID suspension): 741 ng/mL
- concentration at 0 h ([2]; 150 mg QD suspension): 299 ng/mL
- concentration at 0.5 h ([2]; 150 mg QD suspension): 4230 ng/mL
- concentration at 1 h ([2]; 150 mg QD suspension): 4590 ng/mL
- concentration at 1.5 h ([2]; 150 mg QD suspension): 4360 ng/mL
- concentration at 2 h ([2]; 150 mg QD suspension): 4100 ng/mL
- concentration at 2.5 h ([2]; 150 mg QD suspension): 3940 ng/mL
- concentration at 3 h ([2]; 150 mg QD suspension): 3660 ng/mL
- concentration at 4 h ([2]; 150 mg QD suspension): 3130 ng/mL
- concentration at 6 h ([2]; 150 mg QD suspension): 2270 ng/mL
- concentration at 8 h ([2]; 150 mg QD suspension): 1750 ng/mL
- concentration at 10 h ([2]; 150 mg QD suspension): 1360 ng/mL
- concentration at 12 h ([2]; 150 mg QD suspension): 1000 ng/mL
- concentration at 24 h ([2]; 150 mg QD suspension): 247 ng/mL
